In patent US20190381128A1, “GLP-1 Secretagogue and Composition” (MORINAGA MILK INDUSTRY CO., LTD., priority 2017, published 2019):

Columns and labels:
[1] = test system: GLUTag cells; test: GLP-1 secretion cell assay using GLUTag cells (ELISA of culture supernatant); type: cell-based, mouse; conditions: for GLP-1 secretion stimulating activity on GLUTag cells, ratio to blank group: Table 8; for GLP-1 secretion stimulating activity in comparison with the blank group: Dunnett t-test
[2] = test system: GLUTag cells; test: as above; type: cell-based, mouse
Experimental: Each sample was dissolved in Milli Q water and a solution having a protein concentration of 7.5 mg/mL was prepared by the Bradford method. The solution was adjusted to pH 2.0, which is the same pH as in the human stomach, with a 1 mol/L hydrochloric acid, then pepsin (Pep, Sigma-Aldrich; in 1 mM HCL) was added in an amount of 1/12.5 (w/w) relative to the proteins, and the mixture was shaken in a 37° C. thermostat at 140 rpm for 30 minutes. Then, the pH was adjusted to 7.0 with a 1 mol/L sodium hydrogen carbonate solution to stop the digestion reaction of pepsin. Subsequently, pancreatin (Pan, Sigma-Aldrich; in 0.1 M NaHCO3) was added in an amount of 1/62.5 (w/w) relative to the proteins, and the mixture was shaken in a 37° C. thermostat at 140 rpm for a desired time (5 minutes, 10 minutes, 15 minutes, 30 minutes, 45 minutes, 60 minutes, 120 minutes, or overnight). After that, with heat at 90° C. for 3 minutes, the digestion reaction by pancreatin was stopped. The solution after digestion was lyophilized and stored at 4° C. The digestion reactions simulated the state of digestion that a micellar casein and various casein materials taken in the body undergo in the gastrointestinal tract.
GLUTag cells (see, for example, Food Funct., 2015, vol. 6, p. 2525-2534) were cultured on a culture medium containing 10% fetal bovine serum (Dulbecco's modified Eagle's medium (DMEM), GIBCO) at 37° C. in a 5% CO2 incubator for 2 to 3 days into a subconfluent layer. Then, the culture medium was removed, and the cells were suspended twice with HEPES buffer (20 mM HEPES(Sigma), 140 mM NaCl (Wako), 4.5 mM KCl (Wako), 10 mM Glucose (Wako), 1.2 mM MgCl2 (Wako), 1.2 mM CaCl2 (Wako), 0.1% BSA (Sigma), pH7.4).
The lyophilized sample of (1) was dissolved with HEPES buffer so as to give a concentration of 5 mg/mL, and 80 μL of the resulting solution was added to each well of a 48-well culture plate containing the GLUTag cells cultured therein and the cells were incubated at 37° C. for […]. After the treatment, the culture supernatant was collected and was subjected to centrifugation at 800 g at 4° C. for 5 minutes and the resulting supernatant was stored at −80° C. as an ELISA measurement sample. The amount of GLP-1 in the supernatant was measured using ELISA (Millipore) according to a protocol recommended by the manufacturer. The amount of GLP-1 was represented as a relative amount to 100% of that of a group treated only with HEPES buffer (blank group). The number of samples was always three (n=3).
The lyophilized sample of (1) was subjected to an assay using GLUTag cells by the same method and conditions as in Example 1 and the amount of GLP-1 secreted was represented as a relative amount to 100% of that of a blank group. The number of samples was always three (n=3).
The lyophilized sample of (1) was subjected to an assay using GLUTag cells by the same method and conditions as in Example 1, and the amount of GLP-1 secreted was measured as a relative amount to 100% of that of a blank group, provided that the digested product of the κ-casein material sample was diluted at a concentration of 5 mg/mL or 0.5 mg/mL in dissolution in HEPES buffer. A glycomacropeptide (CGMP: from Arla) was also provided as a sample and the standard sample was dissolved as it was in HEPES buffer at a concentration of […]. In the assay, GLUTag cells obtained through depolarizing stimulation with 70 mM KCl were used as a positive control. The amount of GLP-1 secreted was represented as a relative amount to 100% of that of a blank group. The number of samples was always three or four (n=3 to 4).
The lyophilized sample of (1) was subjected to an assay using GLUTag cells by the same method and conditions as in Example 1, and the amount of GLP-1 secreted was represented as a relative amount to 100% of that of a blank group. The number of samples was always three (n=3). […]

[3] = synthesized peptide 1 mM in HEPES buffer
[4] = synthesized peptide 5 mM in HEPES buffer

| Substance | GLP-1 secretion stimulating activity on GLUTag cells, ratio to blank group [1, 3] | GLP-1 secretion stimulating activity on GLUTag cells, ratio to blank group [1, 4] | other results |
| --- | --- | --- | --- |
| GPVRGPFPIIV (peptide 1) [SEQ ID NO: 1, peptide fragment detected in micellar casein digested product, synthesized] | 126.0% | 254.8 (*) % | GLP-1 secretion stimulating activity in comparison with the blank group ([1]; peptide 5 mM): significantly higher |
| Glycomacropeptide |  |  | GLP-1 secretion stimulating activity on GLUTag cells, ratio to blank group ([2]; Table 4, non-degraded (glycomacropeptide dissolved as it was in HEPES buffer)): 81.8% |
| HIQKEDVPSE (peptide 2) [SEQ ID NO: 2, peptide fragment detected in micellar casein digested product, synthesized] | 141.8% | 200.5 (*) % | GLP-1 secretion stimulating activity in comparison with the blank group ([1]; peptide 5 mM): significantly higher |
| HQGLPQEVLNE (peptide 4) [SEQ ID NO: 4, peptide fragment detected in micellar casein digested product, synthesized] | 158.9% | 115.6% |  |
| LEDSPEVIESPPEINT (peptide 5) [SEQ ID NO: 5, peptide fragment detected in micellar casein digested product, synthesized] | 133.9% | 136.9% |  |
| SRYPSYGLN (peptide 6) [SEQ ID NO: 6, peptide fragment found in both micellar casein hydrolysate and casein hydrolysate, synthesized] | 123.6% | 149.7% |  |
| YPVEPFTESQ (peptide 3) [SEQ ID NO: 3, peptide fragment detected in micellar casein digested product, synthesized] | 168.7 (*) % | 143.5% | GLP-1 secretion stimulating activity in comparison with the blank group ([1]; peptide 1 mM): significantly higher |
| YQKFPQYL (peptide 7) [SEQ ID NO: 7, peptide fragment found in both micellar casein hydrolysate and casein hydrolysate, synthesized] | 160.8% | 87.1% |  |
| κ-Casein: κ-casein from bovine milk (from Sigma-Aldrich) |  |  | GLP-1 secretion stimulating activity on GLUTag cells, ratio to blank group ([2]; Table 3, non-degraded, 0.5 mg/ml): 115.6 (c) %; GLP-1 secretion stimulating activity on GLUTag cells, ratio to blank group ([2]; Table 3, non-degraded, 5 mg/ml): 176.5 (b) %; GLP-1 secretion stimulating activity on GLUTag cells, ratio to blank group ([2]; Table 3, pep + pan30, 0.5 mg/ml): 140.9 (c) %; GLP-1 secretion stimulating activity on GLUTag cells, ratio to blank group ([2]; Table 3, pep + pan30, 5 mg/ml): 225.2 (b) %; GLP-1 secretion stimulating activity on GLUTag cells, ratio to blank group ([2]; Table 3, pep + pan60, 0.5 mg/ml): 149.2 (b) %; GLP-1 secretion stimulating activity on GLUTag cells, ratio to blank group ([2]; Table 3, pep + pan60, 5 mg/ml): 216.2 (b) %; GLP-1 secretion stimulating activity on GLUTag cells, ratio to blank group ([2]; Table 3, pep only, 0.5 mg/ml): 150.5 (c) %; GLP-1 secretion stimulating activity on GLUTag cells, ratio to blank group ([2]; Table 3, pep only, 5 mg/ml): 261.8 (b) % |
